# Like-named read-outs stand apart in the source and are kept apart here.
# Assays:
# [1] = target: T1, GT1a D168A NS3/4A protease (UniProt P27958, C1185S/D1194A, species not given); format: biochemical, Hepatitis C virus; details: read-out: Ki (nM) GT1a D168A NS3/4A Protease
# T1 construct: Ki (nM) GT1a D168A NS3/4A Protease
# In short: (§1)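 Enzyme (GT1a wild type or D168A mutant, 2 nM) was preincubated with inhibitor dilutions for 1 h at room temperature in pH 7.5 Tris buffer with glycerol, DTT, LDAO and 4% DMSO.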
# [2] = target: T2, wild-type GT1a NS3/4A protease (UniProt P27958); format: biochemical, Hepatitis C virus
# T2 construct: Ki WT; other: wild-type HCV NS3/4A protease
# In short: as §1
# [3] = target: GT1a D168A NS3/4A protease; format: biochemical, Hepatitis C virus; details: for Ki (Fold change) GT1a D168A NS3/4A Protease: Table 3, Ki D168A relative to GT1a WT
# In short: as §1
# [4] = target: T3, GT1a D168A NS3/4A protease (UniProt P27958, D1194A, species not given); format: biochemical, Hepatitis C virus
# T3 construct: rows headed: Ki (nM) D168A; Ki D168A; other: D168A variant
# In short: as §1
# [5] = target: T4, wild-type GT1a NS3/4A protease (UniProt P27958, C1185S, species not given); format: biochemical, Hepatitis C virus; details: read-out: Ki (nM) GT1a WT NS3/4A Protease
# T4 construct: Ki (nM) GT1a WT NS3/4A Protease
# In short: as §1
# [6] = system: HCV replicon A156T variant in Huh7 cells; test: microbe, parasite or virus in culture; format: cell-based, Hepatitis C virus; details: for EC50: Hepatitis C virus
# In short: (§2)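 Chimeric Con1/H77-NS3 luciferase replicon, electroporated into Huh7 cells and grown with rising protease inhibitor levels; luciferase read 96 h later.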
# [7] = system: HCV replicon R155K variant in Huh7 cells; test: microbe, parasite or virus in culture; format: cell-based, Hepatitis C virus; details: for EC50: Hepatitis C virus
# In short: as §2
# [8] = system: HCV replicon D168A variant in Huh7 cells; test: microbe, parasite or virus in culture; format: cell-based, Hepatitis C virus; details: for EC50: Hepatitis C virus
# In short: as §2
# GT3a NS3/4A protease = target: T5, GT3a NS3/4A protease (Hepatitis C virus genotype 3a, UniProt Q81495); test: biochemical; details: for Ki (Fold change) GT3a NS3/4A Protease: Table 3, Ki GT3a relative to GT1a WT
# T5 construct: drug-resistant variant D168A, and GT3a NS3/4A protease; made in house; host or cells: Escherichia coli BL21(DE3)
# T5 sequence (Q81495 1033-1214): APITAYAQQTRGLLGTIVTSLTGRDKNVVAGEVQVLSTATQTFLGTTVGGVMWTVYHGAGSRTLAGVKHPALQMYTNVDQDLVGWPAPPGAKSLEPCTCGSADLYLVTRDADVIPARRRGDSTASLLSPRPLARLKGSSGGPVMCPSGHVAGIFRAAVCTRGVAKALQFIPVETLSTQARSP
# In short: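 Protease at 2 nM pre-incubated 1 h at room temperature with increasing inhibitor concentrations in 50 mM Tris, 5% glycerol, 10 mM DTT, 0.6 mM LDAO, 4% DMSO. Three independent data sets per inhibitor and construct.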
# [9] = rcm bond, 15-membered ring, Zhan 1b, 1,2-DCE, 70.0 °C
# [10] = system: wild-type HCV replicon in Huh7 cells; test: Cell-based drug susceptibility (replicon) assay, wild-type; details: Hepatitis C virus, read-out: Replicon EC50 (nM) WT
# In short: as §2
# [11] = target: GT1a R155K NS3/4A protease; format: biochemical, Hepatitis C virus; details: fold change in Ki, R155K relative to WT
# In short: (§3)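 2 nM NS3/4A protease (GT1a, R155K and D168A constructs) pre-incubated 1 h at room temperature with increasing inhibitor concentrations in 50 mM Tris pH 7.5, 5% glycerol, 10 mM DTT, 0.6 mM LDAO, 4% DMSO. Three independent data sets per inhibitor and construct; ΔG of binding derived from Ki as ΔG=RTlnKi.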
# [12] = target: GT1a R155K NS3/4A protease (UniProt P27958, R1181K, species not given); format: biochemical, Hepatitis C virus
# In short: as §3
# [13] = system: HCV replicon D168V variant in Huh7 cells; test: microbe, parasite or virus in culture; format: cell-based, Hepatitis C virus; details: for EC50: Hepatitis C virus
# In short: as §2
# [14] = Huh-7, 96 h, read-out: Replicon EC50 (nM) A156T, Table 2, Huh7 cells, luciferase 96 h
# [15] = Huh-7, read-out: Replicon EC50 (nM) A156T, Table 4
# [16] = Table 4, relative to WT replicon
# [17] = Huh-7, 96 h, read-out: Replicon EC50 (nM) R155K, Table 2, Huh7 cells, luciferase 96 h
# [18] = Huh-7, read-out: Replicon EC50 (nM) R155K, Table 4
# [19] = Huh-7, 96 h, read-out: Replicon EC50 (nM) D168A, Table 2, Huh7 cells, luciferase 96 h
# [20] = Huh-7, read-out: Replicon EC50 (nM) D168A, Table 4
# [21] = Huh-7, 96 h, Table 2, Huh7 cells, luciferase 96 h
# [22] = Huh-7, 96 h, read-out: Replicon EC50 (nM) D168V, Table 2, Huh7 cells, luciferase 96 h
# [23] = Huh-7, read-out: Replicon EC50 (nM) D168V, Table 4
Structure (SMILES),Ki ([1]; Table 1),Ki ([1]; Table 3),Ki (Fold change) GT1a D168A NS3/4A Protease [3],Ki ([5]; Table 1),Ki ([5]; Table 3),"EC50 [6, 14]","EC50 [6, 15]","Replicon EC50 (Fold change) A156T [6, 16]","EC50 [7, 17]","EC50 [7, 18]","Replicon EC50 (Fold change) R155K [7, 16]","EC50 [8, 19]","EC50 [8, 20]","Replicon EC50 (Fold change) D168A [8, 16]",Ki (GT3a NS3/4A protease),Ki (Fold change) GT3a NS3/4A Protease (GT3a NS3/4A protease),"EC50 [10, 21]","EC50 ([10]; Huh-7, Table 4)","EC50 [13, 23]","Replicon EC50 (Fold change) D168V [13, 16]",other results
"CCc1nc2ccc(OC)cc2nc1O[C@@H]1C[C@H]2C(=O)N[C@]3(C(=O)NS(=O)(=O)C4CC4)C[C@H]3/C=C\CCCCC[C@H](NC(=O)OC(C)(C)C)C(=O)N2C1 [Compound 2, tert-Butyl ((2R,6S,13aS,14aR,16aS,Z)-14a-((cyclopropylsulfonyl)carbamoyl)-2-((3-ethyl-7-methoxyquinoxalin-2-yl)oxy)-5,16-dioxo-1,2,3,5,6,7,8,9,10,11,13a,14,14a,15,16,16a-hexadecahydrocyclopropa[e]pyrrolo[1,2-a][1,4]diazacyclopentadecin-6-yl)carbamate]",82.4 nM,82.4 ± 4.4 nM,(25) fold,3.29 nM,3.29 nM,9.65 nM,9.65 nM,(29) fold,1.75 nM,1.75 nM,(5) fold,6.31 nM,6.31 nM,(19) fold,204 nM,(62) fold,0.33 nM,0.33 nM,9.1 nM,(28) fold,"Ki ([2]; read-out: Ki (nM) WT, Table 8, linear inhibitors): 2 nM; Ki ([2]; read-out: Ki WT, wild-type HCV NS3/4A protease): 2 ± 0.1 nM; Ki D168A (fold change) ([3]; fold change in Ki, D168A relative to WT): 46; Ki ([4]; read-out: Ki (nM) D168A, Table 8, linear inhibitors): 91 ± 10 nM; Ki ([4]; read-out: Ki D168A, D168A variant): 91 ± 10 nM; EC50 ([6]; Huh-7, read-out: Replicon EC50 (nM) A156T, Table 9): 9.7 nM; Replicon EC50 (Fold change) A156T ([6]; Table 9, relative to WT): (29) fold; EC50 ([7]; Huh-7, read-out: Replicon EC50 (nM) R155K, Table 9): 1.8 nM; Replicon EC50 (Fold change) R155K ([7]; Table 9, relative to WT): (5.5) fold; EC50 ([8]; Huh-7, read-out: Replicon EC50 (nM) D168A, Table 9): 6.3 nM; Replicon EC50 (Fold change) D168A ([8]; Table 9, relative to WT): (19) fold; ring closure, isolated yield ([9]; 6.0 mM): 53%; EC50 ([10]; Huh-7, Table 9): 0.33 nM; Ki R155K (fold change) [11]: 1.6; Ki ([12]; read-out: Ki (nM) R155K, Table 8, linear inhibitors): 3.1 ± 0.34 nM; Ki ([12]; read-out: Ki R155K, R155K variant): 3.1 ± 0.34 nM; EC50 [13, 22]: 9.1 nM; EC50 ([13]; Huh-7, read-out: Replicon EC50 (nM) D168V, Table 9): 9.1 nM; Replicon EC50 (Fold change) D168V ([13]; Table 9, relative to WT): (28) fold"
"CCc1nc2ccc(OC)cc2nc1O[C@@H]1C[C@H]2C(=O)N[C@]3(C(=O)NS(=O)(=O)C4(C)CC4)C[C@H]3/C=C\CCCCC[C@H](NC(=O)OC(C)(C)C)C(=O)N2C1 [Compound 19a, tert-Butyl ((2R,6S,13aS,14aR,16aS,Z)-2-((3-ethyl-7-methoxyquinoxalin-2-yl)oxy)-14a-(((1-methylcyclopropyl)sulfonyl)carbamoyl)-5,16-dioxo-1,2,3,5,6,7,8,9,10,11,13a,14,14a,15,16,16a-hexadecahydrocyclopropa[e]pyrrolo[1,2-a][1,4]diazacyclopentadecin-6-yl)carbamate]",55.2 nM,55.2 ± 5.3 nM,(30) fold,1.82 nM,1.82 nM,4.52 nM,4.52 nM,(11) fold,1.8 nM,1.8 nM,(4) fold,4.97 nM,4.97 nM,(12) fold,171 nM,(94) fold,0.43 nM,0.43 nM,6.42 nM,(15) fold,"ring closure, isolated yield ([9]; from C=CCCCCC[C@H](NC(=O)OC(C)(C)C)C(=O)N1C[C@H](Oc2nc3cc(OC)ccc3nc2CC)C[C@H]1C(=O)N[C@]1(C(=O)NS(=O)(=O)C2(C)CC2)C[C@H]1C=C, 6.0 mM): 71%; EC50 [13, 22]: 6.42 nM"
"COc1ccc2nc(Cl)c(O[C@@H]3C[C@H]4C(=O)N[C@]5(C(=O)NS(=O)(=O)C6(C)CC6)C[C@H]5/C=C\CCCCC[C@H](NC(=O)OC(C)(C)C)C(=O)N4C3)nc2c1 [Compound 19c, tert-Butyl ((2R,6S,13aS,14aR,16aS,Z)-2-((3-chloro-7-methoxyquinoxalin-2-yl)oxy)-14a-(((1-methylcyclopropyl)sulfonyl)carbamoyl)-5,16-dioxo-1,2,3,5,6,7,8,9,10,11,13a,14,14a,15,16,16a-hexadecahydrocyclopropa[e]pyrrolo[1,2-a][1,4]diazacyclopentadecin-6-yl)carbamate]",77.7 nM,77.7 ± 6.1 nM,(70) fold,1.11 nM,1.11 nM,8.86 nM,8.86 nM,(49) fold,–,0.4 nM,(2) fold,< 2 nM,1.07 nM,(6) fold,53.6 nM,(48) fold,–,0.18 nM,0.49 nM,(3) fold,"ring closure, isolated yield ([9]; 5.0 mM): 86%"

# Source: US11472778B2, “Hepatitis C virus NS3/4A protease inhibitors” (priority 2017, dated 2022)
